Molecules are shown by their SMILES. Some results are limits rather than exact numbers.

Data set [1] concerns histamine aerosol. As to the kind of experiment: Histamine aerosol exposure (collapse time). The format is in vivo, guinea pigs. The conditions noted are these: Cavia porcellus, ip, 2 h, challenged two hours after intraperitoneal injection; collapse time > mean + two SD of controls. As for the experimental part:
In another procedure, test compounds were administered to guinea pigs by intraperitoneal injection and the guinea pigs were challenged two hours later by exposure to a histamine aerosol. Untreated animals collapse when exposed to the histamine aerosol. […] The ED50 's of representative compounds are set out in the following table.

Data set [2] concerns mice. As to conditions: U.S. Pat. No. 4,136,182, in words, cited from earlier work.
Data set [3] relates to histamine-induced bronchoconstriction. The conditions noted are these: in words; cited from earlier work.
In data set [4] the test system is mice. As to conditions: laboratory animals; in words; U.S. Pat. No. 4,136,182; cited from earlier work.
A short description of data set [5]: 30 minute LD50 (acute toxicity without sound). The conditions noted are these: mouse, in vivo, ip. On the procedure:
(§1) The interaction of sound with the convulsive threshold of drugs is a known phenomenon which can be used to evaluate such side effects. […] In a procedure for pharmacological evaluation, the lowering of the convulsive threshold, or the lowering of the LD50, by sound can be studied in mice.
(§2) In the test operations, mice are administered a test compound by intraperitoneal injection at various dosages, and the number of mice showing tonic convulsions and the number of fatalities occurring within 30 minutes is recorded.

Data set [6] deals with histamine-induced bronchoconstriction. As to the kind of experiment: Bronchodilator activity in the Konzett-Rossler guinea pig preparation (histamine-induced bronchoconstriction). Also on record: key to Histamine Blockade: % blockade = 100 − (post-dose response / mean of 3 prior) × 100. The conditions noted are these: for Histamine Blockade: table 7, intravenous, 3 mg/kg except as otherwise indicated, aminophylline 10 mg/kg. The class given is in vivo. On the procedure:
Bronchodilator activity of representative triazolopyridazine compounds of the invention is examined in the Konzett-Rossler quinea pig preparation according to accepted procedures. See Knozett and Rossler; Arch. f. Exp. Path. u. Pharmakol. […] Int. Pharmacodyn. […] In this procedure an anesthetized guinea pig is artificially respired with a fixed volume of air. The volume of air is selected to slightly exceed the capacity of the guinea pig's lungs, and the excess air or "overflow" is measured. Test compounds are evaluated by administering a test compound intravenously 2 minutes prior to administration of an agonist compound (histamine, serotonin or acetylcholine) following 3 previous agonist doses resulting in relatively uniform (±10 percent) bronchoconstriction. […] This is calculated by dividing the "overflow" agonist response measured after administration of the test compound by the average of the 3 preceding agonist responses, multiplying by 100 and subtracting this value from 100 percent.

Data set [7] in a line: Audiogenic convulsive side effects (sound challenge: tonic convulsions and fatalities). The conditions noted are these: mouse, ip. As for the experimental part:
as §1, §2
(§3) The sound exposure is carried out by placing the mice in a sound insulated cage with a bell which emits 120 decibels of sound, and activating the bell for two minutes. The number of tonic convulsions and fatalities are then recorded to determine the ED50 and LD50 in the presence of the sound challenge.

Data set [8] has as its system mice. As to the kind of experiment: in vivo. The conditions noted are these: mouse. On the procedure: as §1, §2, §3

`CC1CCCN1c1nn2cnnc2c2c1CCCC2` (centres unmarked) [Example 30, 6-(2-methylpyrrolidinyl)-7,8-tetramethylene(1,2,4)triazolo[4,3-b]pyridazine]: the ED50 in data set [1] was determined as 1.6 mg/kg.
The same measure, in the same setting: then `c1nnc2c3c(c(N4CCCCCC4)nn12)CCCC3` [Example 29, 6-(hexahydro-1H-azepin-1-yl)-7,8-tetramethylene(1,2,4)triazolo[4,3-b]pyridazine], with 5 mg/kg; and `CCc1nnc2c3c(c(N4CCCC4)nn12)CCCC3` [Example 51], with < 2.5 mg/kg; and `CC1CCN(c2nn3cnnc3c3c2CCCC3)CC1` [Example 34], with 1.3 mg/kg.
On the same count and under the same terms, the result for `CNc1nn2cnnc2c2c1CCCC2` [Example 31] reads 4 mg/kg.
Turning to `O=C1C[C@@H]2OCC=C3CN4CC[C@]56c7ccccc7N1[C@H]5[C@H]2[C@H]3C[C@H]46` [strychnine], in data set [2], the “change in toxicity with sound” value was “no significant change in toxicity with sound”.
Regarding `c1ccc(-c2nnc3ccc(N4CCOCC4)nn23)cc1` [6-morpholino-3-phenyl-s-triazolo[4,3-b]pyridazine, reference compound], the audiogenic convulsions entry in data set [2] (laboratory animals) was “produce audiogenic convulsions in laboratory animals at relatively low dosages”. The effect on bronchoconstriction entry in data set [3] is on record as “potent bronchodilator”. For the same compound, in data set [4], the “LD50 (toxicity)” value is on record as “high LD50 (low toxicity)”. For the same compound, the LD50 at 0.5 h in data set [5] was > 400 mg/kg. For the same compound, the “Histamine Blockade” value in data set [6] worked out at 22. In data set [7] (in vivo), this compound came in with a 50% lethal dose (LD50) of 30 mg/kg and a TD50 of 5 mg/kg.
As to `Cc1nnc2c3c(c(N(C)C)nn12)CCCC3` [Example 39], the ED50 in data set [1] is 2.2 mg/kg.
In the case of `CCc1nnc2c3c(c(N4CCCN(C)CC4)nn12)CCCC3` [Example 45], the ED50 in data set [1] worked out at 5 mg/kg.
Compound `Cc1cc2nnc(C)n2nc1N1CCOCC1` [Example 2, 3,7-dimethyl-6-morpholino-s-triazolo[4,3-b]pyridazine] yielded a 50% lethal dose (LD50) at 0.5 h in data set [5] of 228 mg/kg. Moreover, the “percent blockade of histamine” value in data set [6] (3 mg/kg intravenously, 2 minutes prior to histamine) is given as 61%. Also, the “Histamine Blockade” value in data set [6] is 61. Moreover, the “audiogenic convulsive threshold / sound-induced toxicity” value in data set [8] is “much less reduction in convulsive threshold”. Moreover, in data set [7] (in vivo), the LD50 came to 148 mg/kg. The TD50 in data set [7] was 135 mg/kg.
`CCc1nnc2c3c(c(N4CCN(C)CC4)nn12)CCCC3` [Example 53]: the ED50 in data set [1] worked out at 36.4 mg/kg.
For the compound `CC1CCCN(c2nn3cnnc3c3c2CCCC3)C1` (centres unmarked) [Example 33], the ED50 in data set [1] came out at 1.8 mg/kg.
Take `CCc1nnc2c3c(c(N4CCCCCC4)nn12)CCCC3` [Example 47]: the ED50 in data set [1] is ~4.95 mg/kg.
For the compound `Cc1cc(-c2ccccc2)c2nnc(N3CCOCC3)n2n1` [6-methyl-3-(4-morpholinyl)-8-phenyl-s-triazolo[4,3-b]pyridazine], in data set [3], the effect on bronchoconstriction result is given as “potentiate bronchoconstriction”.
`CN(C)c1nn2cnnc2c2c1CCCC2` [Example 32]: the ED50 in data set [1] is 2.5 mg/kg.
